System: MV-4-11 cells
Test: Gene expression microarray analysis (Affymetrix PrimeView) and GSEA
Assay type: cell-based, human
Set-up: RFU PODN (11730768_x_at) / Fold change /veh PODN (11730768_x_at) / RFU LINC00158 (11744669_a_at) / Fold change /veh LINC00158 (11744669_a_at) / RFU DUSP10 (11751237_a_at) / Fold change /veh DUSP10 (11751237_a_at) / RFU ID3 (11757404_x_at) / Fold change /veh ID3 (11757404_x_at) / RFU PLEKHG5 (11737974_s_at) / Fold change /veh PLEKHG5 (11737974_s_at) / RFU LRRC4B (11730491_at) / Fold change /veh LRRC4B (11730491_at) / RFU GIMAP4 (11747438_a_at) / Fold change /veh GIMAP4 (11747438_a_at) / RFU KRT8 (11758183_x_at) / Fold change /veh KRT8 (11758183_x_at) / RFU CNN1 (11734310_a_at) / Fold change /veh CNN1 (11734310_a_at) / RFU VPS37D (11726825_at) / Fold change /veh VPS37D (11726825_at) / RFU C10orf10 (11716522_x_at) / Fold change /veh C10orf10 (11716522_x_at) / RFU KIR2DL2 /// KIR2DL4 /// KIR2DL5A /// KIR2DL5B /// KIR2DS1 /// KIR2DS2 /// KIR2DS3 /// KIR2DS4 /// KIR3DL3 /// KIR3DL3 /// KIR3DS1 (11738374_at) / Fold change /veh KIR2DL2 /// KIR2DL4 /// KIR2DL5A /// KIR2DL5B /// KIR2DS1 /// KIR2DS2 /// KIR2DS3 /// KIR2DS4 /// KIR3DL3 /// KIR3DL3 /// KIR3DS1 (11738374_at) / RFU C1QL1 (11718748_at) / Fold change /veh C1QL1 (11718748_at) / RFU TMPRSS4 (11747572_a_at) / Fold change /veh TMPRSS4 (11747572_a_at) / RFU HAMP (11756126_x_at) / Fold change /veh HAMP (11756126_x_at) / RFU RNFT2 (11725882_a_at) / Fold change /veh RNFT2 (11725882_a_at) / RFU NR4A2 (11747474_a_at) / Fold change /veh NR4A2 (11747474_a_at) / RFU ABCC12 (11746883_a_at) / Fold change /veh ABCC12 (11746883_a_at) / RFU TMEM136 (11760407_x_at) / Fold change /veh TMEM136 (11760407_x_at) / RFU CLDN22 /// WWC2 (11732394_at) / Fold change /veh CLDN22 /// WWC2 (11732394_at) / RFU HLA-DPB1 (11760878_x_at) / Fold change /veh HLA-DPB1 (11760878_x_at) / RFU SPINT1 (11716480_a_at) / Fold change /veh SPINT1 (11716480_a_at) / RFU GAP43 (11754022_s_at) / Fold change /veh GAP43 (11754022_s_at) / RFU A4GNT (11735810_at) / Fold change /veh A4GNT (11735810_at) / RFU PRB3 (11715151_x_at) / Fold change /veh PRB3 (11715151_x_at) / RFU TUBB4B (11761932_at) / Fold change /veh TUBB4B (11761932_at) / RFU CAPN14 (11732068_a_at) / Fold change /veh CAPN14 (11732068_a_at) / RFU TMCC2 (11721928_a_at) / Fold change /veh TMCC2 (11721928_a_at) / RFU IRGQ (11745062_a_at) / Fold change /veh IRGQ (11745062_a_at) / RFU FAM174B (11720279_a_at) / Fold change /veh FAM174B (11720279_a_at) / RFU TMPRSS4 (11748680_a_at) / Fold change /veh TMPRSS4 (11748680_a_at) / RFU FAM212B (11763350_a_at) / Fold change /veh FAM212B (11763350_a_at) / RFU PLEKHG5 (11743358_a_at) / Fold change /veh PLEKHG5 (11743358_a_at) / RFU ZSCAN30 (11745921_a_at) / Fold change /veh ZSCAN30 (11745921_a_at) / RFU CMKLR1 (11741424_a_at) / Fold change /veh CMKLR1 (11741424_a_at) / RFU LOC101060620 /// MAPK8IP1 (11723275_at) / Fold change /veh LOC101060620 /// MAPK8IP1 (11723275_at) / RFU SPTSSB (11747773_x_at) / Fold change /veh SPTSSB (11747773_x_at) / RFU PRSS12 (11739890_at) / Fold change /veh PRSS12 (11739890_at) / RFU BIN1 (11741810_x_at) / Fold change /veh BIN1 (11741810_x_at) / RFU WNT11 (11732464_a_at) / Fold change /veh WNT11 (11732464_a_at) / RFU C10orf10 (11716521_a_at) / Fold change /veh C10orf10 (11716521_a_at) / RFU C5orf56 (11738089_at) / Fold change /veh C5orf56 (11738089_at) / RFU CYB561 (11721691_x_at) / Fold change /veh CYB561 (11721691_x_at) / RFU ANKRD19P (11752326_a_at) / Fold change /veh ANKRD19P (11752326_a_at) / RFU OR2T12 /// OR2T33 /// OR2T8 (11738714_s_at) / Fold change /veh OR2T12 /// OR2T33 /// OR2T8 (11738714_s_at) / RFU VCAN (11748164_a_at) / Fold change /veh VCAN (11748164_a_at) / RFU JSRP1 (11732532_at) / Fold change /veh JSRP1 (11732532_at) / RFU KRTAP10-11 (11738290_x_at) / Fold change /veh KRTAP10-11 (11738290_x_at) / RFU MYO3A (11730013_a_at) / Fold change /veh MYO3A (11730013_a_at) / RFU EBF3 (11725865_a_at) / Fold change /veh EBF3 (11725865_a_at) / RFU CAMK2N1 (11719241_x_at) / Fold change /veh CAMK2N1 (11719241_x_at) / RFU C5orf56 (11738088_a_at) / Fold change /veh C5orf56 (11738088_a_at) / RFU OLFML3 (11715873_a_at) / Fold change /veh OLFML3 (11715873_a_at) / RFU LOC100653217 /// NTM (11731650_a_at) / Fold change /veh LOC100653217 /// NTM (11731650_a_at) / RFU MAPK11 (11762145_a_at) / Fold change /veh MAPK11 (11762145_a_at) / RFU FIZ1 (11724087_x_at) / Fold change /veh FIZ1 (11724087_x_at) / RFU OASL (11726364_x_at) / Fold change /veh OASL (11726364_x_at) / RFU SOX15 (11748057_x_at) / Fold change /veh SOX15 (11748057_x_at) / RFU CD79A (11719716_a_at) / Fold change /veh CD79A (11719716_a_at) / RFU HIST1H1D (11736915_at) / Fold change /veh HIST1H1D (11736915_at) / RFU CASKIN2 (11723855_a_at) / Fold change /veh CASKIN2 (11723855_a_at) / RFU LOC730098 (11760151_x_at) / Fold change /veh LOC730098 (11760151_x_at) / RFU OR4N2 (11742367_at) / Fold change /veh OR4N2 (11742367_at) / RFU PRRT2 (11749266_a_at) / Fold change /veh PRRT2 (11749266_a_at) / RFU SNX32 (11753110_a_at) / Fold change /veh SNX32 (11753110_a_at) / RFU CDHR5 (11726645_a_at) / Fold change /veh CDHR5 (11726645_a_at) / RFU RCAN1 (11760418_a_at) / Fold change /veh RCAN1 (11760418_a_at) / RFU FAM167A (11723789_a_at) / Fold change /veh FAM167A (11723789_a_at) / RFU FAM26E (11764081_at) / Fold change /veh FAM26E (11764081_at) / RFU ISYNA1 (11749810_s_at) / Fold change /veh ISYNA1 (11749810_s_at) / RFU ACY1 (11761880_at) / Fold change /veh ACY1 (11761880_at) / RFU 11764098_at / Fold change /veh 11764098_at / RFU SAMD14 (11745864_x_at) / Fold change /veh SAMD14 (11745864_x_at) / RFU NPB (11741838_a_at) / Fold change /veh NPB (11741838_a_at) / RFU TMPRSS6 (11731388_a_at) / Fold change /veh TMPRSS6 (11731388_a_at) / RFU KRTAP10-2 (11738614_at) / Fold change /veh KRTAP10-2 (11738614_at) / RFU ARHGAP8 /// PRR5-ARHGAP8 (11727945_x_at) / Fold change /veh ARHGAP8 /// PRR5-ARHGAP8 (11727945_x_at) / RFU KRTAP5-7 /// NADSYN1 (11734609_at) / Fold change /veh KRTAP5-7 /// NADSYN1 (11734609_at) / RFU RASL12 (11751679_a_at) / Fold change /veh RASL12 (11751679_a_at) / RFU CDKN2B (11736163_a_at) / Fold change /veh CDKN2B (11736163_a_at) / RFU PRF1 (11729649_at) / Fold change /veh PRF1 (11729649_at) / RFU, ZNF638 /// ZNF638-IT1 / Fold change vs veh, ZNF638 /// ZNF638-IT1 / RFU, PANK3 / Fold change vs veh, PANK3 / RFU, SH3YL1 / Fold change vs veh, SH3YL1 / RFU, ZEB2 / Fold change vs veh, ZEB2 / RFU, NRIP1 / Fold change vs veh, NRIP1 / RFU, PTTG1IP / Fold change vs veh, PTTG1IP / RFU, CAPN2 / Fold change vs veh, CAPN2 / RFU, MED14 / Fold change vs veh, MED14 / RFU, SNORA58 / Fold change vs veh, SNORA58 / RFU, C1orf63 / Fold change vs veh, C1orf63 / RFU, LRRFIP1 / Fold change vs veh, LRRFIP1 / RFU, NDUFAF7 / Fold change vs veh, NDUFAF7 / RFU, SLC12A2 / Fold change vs veh, SLC12A2 / RFU, IBTK / Fold change vs veh, IBTK / RFU, ESF1 / Fold change vs veh, ESF1 / Fold change vs veh, TMEM50B / RFU, TAOK1 / Fold change vs veh, TAOK1 / RFU, ACBD3 / Fold change vs veh, ACBD3 / RFU, TMA16 / Fold change vs veh, TMA16 / RFU, RWDD3 / Fold change vs veh, RWDD3 / RFU, BCAT1 / Fold change vs veh, BCAT1 / RFU, EDEM3 / Fold change vs veh, EDEM3 / RFU, TMEM33 / Fold change vs veh, TMEM33 / RFU, WDR75 / Fold change vs veh, WDR75 / RFU, AHCTF1 / Fold change vs veh, AHCTF1 / RFU, TFRC / Fold change vs veh, TFRC / RFU, ZDHHC17 / Fold change vs veh, ZDHHC17 / RFU, NOM1 / Fold change vs veh, NOM1 / RFU, ARL8B / Fold change vs veh, ARL8B / RFU, ZBTB11 / Fold change vs veh, ZBTB11 / RFU, TAMM41 / Fold change vs veh, TAMM41 / RFU, KIAA1704 /// LOC100996395 / Fold change vs veh, KIAA1704 /// LOC100996395 / RFU, ING1 / Fold change vs veh, ING1 / RFU, TRMT61B / Fold change vs veh, TRMT61B / RFU, FUBP3 / Fold change vs veh, FUBP3 / RFU, TP53 / Fold change vs veh, TP53 / RFU, TNKS2 / Fold change vs veh, TNKS2 / RFU, ZFP14 / Fold change vs veh, ZFP14 / RFU, ACTR2 / Fold change vs veh, ACTR2 / RFU, PPP3R1 / Fold change vs veh, PPP3R1 / RFU, PIK3R1 / Fold change vs veh, PIK3R1 / RFU, HNRNPA1 / Fold change vs veh, HNRNPA1 / RFU, RNF170 / Fold change vs veh, RNF170 / RFU, ZNF28 / Fold change vs veh, ZNF28 / RFU, RNGTT / Fold change vs veh, RNGTT / RFU, OGT / Fold change vs veh, OGT / RFU, BRD1 / Fold change vs veh, BRD1 / RFU, MARS / Fold change vs veh, MARS / RFU, ZNF655 / Fold change vs veh, ZNF655 / RFU, FAHD1 / Fold change vs veh, FAHD1 / RFU, BDP1 / Fold change vs veh, BDP1 / RFU, LRRCC1 / Fold change vs veh, LRRCC1 / RFU, ARID1A / Fold change vs veh, ARID1A / RFU, ZNF146 / Fold change vs veh, ZNF146 / RFU, ZNF330 / Fold change vs veh, ZNF330 / RFU, GPN3 / Fold change vs veh, GPN3 / RFU, C9orf123 / Fold change vs veh, C9orf123 / RFU, N4BP2L2 / Fold change vs veh, N4BP2L2 / RFU, ARFIP1 / Fold change vs veh, ARFIP1 / RFU, FAM179B / Fold change vs veh, FAM179B / RFU, BCL10 / Fold change vs veh, BCL10 / RFU, UHRF1BP1L / Fold change vs veh, UHRF1BP1L / RFU, BET1 / Fold change vs veh, BET1 / RFU, CNOT2 / Fold change vs veh, CNOT2 / RFU, ZNF268 / Fold change vs veh, ZNF268 / Fold change vs veh, ZNF507 / RFU, DGCR2 / Fold change vs veh, DGCR2 / RFU, WDSUB1 / Fold change vs veh, WDSUB1 / Fold change vs veh, HSP90B1 /// MIR3652 / RFU, ADSS / Fold change vs veh, ADSS / RFU, GK / Fold change vs veh, GK / RFU, ZNF148 / Fold change vs veh, ZNF148 / RFU, TAF9 / Fold change vs veh, TAF9 / RFU, SLC1A5 / Fold change vs veh, SLC1A5 / RFU, SLMO2 / Fold change vs veh, SLMO2 / RFU, ABCC4 / Fold change vs veh, ABCC4 / RFU, LOC101060439 /// RAP1B / Fold change vs veh, LOC101060439 /// RAP1B / RFU, RFX7 / Fold change vs veh, RFX7 / RFU, GTPBP10 / Fold change vs veh, GTPBP10 / RFU, CNEP1R1 / Fold change vs veh, CNEP1R1 / RFU, BIVM-ERCC5 /// ERCC5 / Fold change vs veh, BIVM-ERCC5 /// ERCC5 / RFU, ILF3 / Fold change vs veh, ILF3 / RFU 11762660_at / Fold change /veh 11762660_at / RFU VCAN (11757783_s_at) / Fold change /veh VCAN (11757783_s_at) / RFU DDX43 (11728927_at) / Fold change /veh DDX43 (11728927_at) / RFU KRT8 (11758188_x_at) / Fold change /veh KRT8 (11758188_x_at) / RFU NKD1 (11759106_at) / Fold change /veh NKD1 (11759106_at) / RFU SRD5A1 (11742802_a_at) / Fold change /veh SRD5A1 (11742802_a_at) / RFU TPSAB1 /// TPSB2 (11721975_s_at) / Fold change /veh TPSAB1 /// TPSB2 (11721975_s_at) / RFU GSTM3 (11746129_a_at) / Fold change /veh GSTM3 (11746129_a_at) / RFU IL23R (11737362_x_at) / Fold change /veh IL23R (11737362_x_at) / RFU TMEM51 (11727254_a_at) / Fold change /veh TMEM51 (11727254_a_at) / RFU PIWIL2 (11732686_x_at) / Fold change /veh PIWIL2 (11732686_x_at) / RFU ORM1 (11744905_x_at) / Fold change /veh ORM1 (11744905_x_at) / RFU CCDC152 (11743942_at) / Fold change /veh CCDC152 (11743942_at) / RFU ECM1 (11717891_a_at) / Fold change /veh ECM1 (11717891_a_at) / RFU IL23R (11748794_a_at) / Fold change /veh IL23R (11748794_a_at) / RFU TNFAIP8L3 (11732012_x_at) / Fold change /veh TNFAIP8L3 (11732012_x_at) / RFU MBOAT4 (11741988_at) / Fold change /veh MBOAT4 (11741988_at) / RFU 11764193_at / Fold change /veh 11764193_at / RFU TMEM53 (11763286_at) / Fold change /veh TMEM53 (11763286_at) / RFU MAGEB2 (11727129_at) / Fold change /veh MAGEB2 (11727129_at) / RFU TMEM200A (11744735_a_at) / Fold change /veh TMEM200A (11744735_a_at) / RFU CCDC152 (11751479_a_at) / Fold change /veh CCDC152 (11751479_a_at) / RFU FAM211A (11726209_a_at) / Fold change /veh FAM211A (11726209_a_at) / RFU RGS16 (11746705_a_at) / Fold change /veh RGS16 (11746705_a_at) / RFU VCAN (11755009_s_at) / Fold change /veh VCAN (11755009_s_at) / RFU RHOB (11743442_s_at) / Fold change /veh RHOB (11743442_s_at) / RFU RGS16 (11720943_a_at) / Fold change /veh RGS16 (11720943_a_at) / RFU RGS16 (11720944_at) / Fold change /veh RGS16 (11720944_at) / RFU, VPS4B / Fold change vs veh, VPS4B / RFU, CREB1 / Fold change vs veh, CREB1 / RFU, DNAJC13 / Fold change vs veh, DNAJC13 / RFU, GNAQ / Fold change vs veh, GNAQ / RFU, CDK5R1 / Fold change vs veh, CDK5R1 / RFU, ZRANB3 / Fold change vs veh, ZRANB3 / RFU, CUL4A / Fold change vs veh, CUL4A / RFU, CCNY / Fold change vs veh, CCNY / RFU, UFL1 / Fold change vs veh, UFL1 / RFU, COG3 / Fold change vs veh, COG3 / RFU, DIAPH2 / Fold change vs veh, DIAPH2 / RFU, SKA2 / Fold change vs veh, SKA2 / RFU, AFF3 / Fold change vs veh, AFF3 / RFU, LMF1 / Fold change vs veh, LMF1 / RFU, IPO11 / Fold change vs veh, IPO11 / RFU, DFFB / Fold change vs veh, DFFB / RFU, FOXP1 / Fold change vs veh, FOXP1 / RFU, CARD8 / Fold change vs veh, CARD8 / RFU, STRN3 / Fold change vs veh, STRN3 / RFU, ADK / Fold change vs veh, ADK / RFU, RASSF2 / Fold change vs veh, RASSF2 / RFU, WIPF1 / Fold change vs veh, WIPF1 / RFU, LARP1B / Fold change vs veh, LARP1B / RFU, RASA1 / Fold change vs veh, RASA1 / RFU, RB1 / Fold change vs veh, RB1 / RFU, PPFIA1 / Fold change vs veh, PPFIA1 / RFU, MAT2A / Fold change vs veh, MAT2A / RFU, CCT5 / Fold change vs veh, CCT5 / RFU, WDR92 / Fold change vs veh, WDR92 / RFU, CUX1 / Fold change vs veh, CUX1 / RFU, TTC7A / Fold change vs veh, TTC7A / RFU, TMEM135 / Fold change vs veh, TMEM135 / RFU, DEPTOR / Fold change vs veh, DEPTOR / RFU, CPM / Fold change vs veh, CPM / RFU, DNAJB6 / Fold change vs veh, DNAJB6 / RFU, CACNA2D3 / Fold change vs veh, CACNA2D3 / RFU, DTX4 / Fold change vs veh, DTX4 / RFU, TFCP2 / Fold change vs veh, TFCP2 / RFU, GMCL1 /// GMCL1P1 / Fold change vs veh, GMCL1 /// GMCL1P1 / RFU, AEBP2 / Fold change vs veh, AEBP2 / RFU, SNHG1 /// SNORD22 /// SNORD25 /// SNORD26 /// SNORD27 /// SNORD28 /// SNORD29 /// SNORD31 / Fold change vs veh, SNHG1 /// SNORD22 /// SNORD25 /// SNORD26 /// SNORD27 /// SNORD28 /// SNORD29 /// SNORD31 / Fold change (Aza/veh), C12orf56 (ProbeSet 11735607_a_at) / Fold change (ACY-1035/veh), C12orf56 (ProbeSet 11735607_a_at) / Fold change (Aza/veh), FGFR1OP (ProbeSet 11751329_s_at) / Fold change (ACY-1035/veh), FGFR1OP (ProbeSet 11751329_s_at) / Fold change (Aza/veh), VPS36 (ProbeSet 11739960_a_at) / Fold change (ACY-1035/veh), VPS36 (ProbeSet 11739960_a_at) / RFU SYPL1 (11715823_x_at) / Fold change /veh SYPL1 (11715823_x_at) / RFU IGFBP7 (11715501_s_at) / Fold change /veh IGFBP7 (11715501_s_at) / RFU REEP3 (11722064_at) / Fold change /veh REEP3 (11722064_at) / RFU IGLL1 (11728026_x_at) / Fold change /veh IGLL1 (11728026_x_at): dose or concentration left out as unconfirmed
Conditions: ProbeSet 11725217_a_at; LIST B

Compound: Nc1ncn([C@@H]2O[C@H](CO)[C@@H](O)[C@H]2O)c(=O)n1 [azacitidine]
- Fold change vs veh, WDSUB1: 0.86

Reference: publication PMC5218480 (PLoS ONE, 2017)
